What follows are molecules tested against S1P1/EDG1 (Homo sapiens, UniProt P21453) (assay: S1P1 CRE-bla CHOK1 reporter assay, inhibition of Forskolin induced cAMP). Conditions: agonist activity range, S1P1 CRE-bla CHOK1, 2 μM Forskolin; read-out: S1P1 ACTIVITY.
Format: cell-based
Protocol: Generation of S1P1-Mediated Inhibition of cAMP Reporter Assay
A mammalian expression plasmid containing S1P1/EDG1 cloned into pcDNA3.1 was purchased from Missouri S&T cDNA Resource Centre. […] S1P1/pcDNA3.1 was transfected into the CRE-bla CHO K1 (Invitrogen) cell line, and stable single cell clones were selected using standard techniques.
S1P1 CRE-Bla CHOK1 Reporter Assay—Characterization of S1P1 Agonists
Cells were seeded into 384-well black wall/clear bottom plates at 10^4 cells/well/19.5 μl assay media (DMEM-phenol free, 0.5% charcoal/dextran stripped serum, 2 mM glutamine, 0.1 mM NEAA, 1 mM Na-Pyruvate, 25 mM Hepes) and incubated for 18 hrs at 37° C. in 5% CO2. Dose response curves (10-point) were generated in 10 mM Hepes, 0.1% Pluronic F127, in the presence of Forskolin. Cells were treated with 0.5 μl compound in the presence of 2 μM Forskolin for 4 hrs at 37° C. The FRET-based β-lactamase fluorescent substrate (LiveBLAzer™-FRET B/G Loading Kit CC4-AM; Invitrogen) was prepared according to manufacturer's directions, and incubated with cells for 2 hrs at room temperature. […] Data was analyzed by non-linear regression to determine the EC50 for inhibition of Forskolin induced cAMP.

Sequence of S1P1/EDG1 (P21453 whole entry): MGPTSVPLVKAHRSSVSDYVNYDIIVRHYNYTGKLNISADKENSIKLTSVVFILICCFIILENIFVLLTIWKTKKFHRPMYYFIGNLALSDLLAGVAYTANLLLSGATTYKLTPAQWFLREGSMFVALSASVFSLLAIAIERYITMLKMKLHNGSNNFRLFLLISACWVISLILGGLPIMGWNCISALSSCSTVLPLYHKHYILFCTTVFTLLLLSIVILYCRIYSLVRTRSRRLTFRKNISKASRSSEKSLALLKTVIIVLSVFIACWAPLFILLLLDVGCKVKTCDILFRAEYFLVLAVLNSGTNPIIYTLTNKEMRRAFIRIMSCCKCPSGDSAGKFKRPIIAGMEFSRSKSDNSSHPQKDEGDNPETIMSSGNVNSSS

`CNS(=O)(=O)CCNC1CCc2c(-c3noc(-c4ccc(OC(C)C)c(C#N)c4)n3)cccc21` (racemic) [Compound 45, 2-((4-(5-(3-cyano-4-isopropoxyphenyl)-1,2,4-oxadiazol-3-yl)-2,3-dihydro-1H-inden-1-yl)amino)-N-methylethanesulfonamide] and `CC(C)Oc1ccc(-c2nc(-c3cccc4c3CCC4NCCN)no2)cc1C#N` (racemic) [Compound 29] fall in the same range of EC50: 0.05 to 0.5 nM for the first, 0.05 to 0.5 nM for the second.

Compared with `CC(C)Oc1ccc(-c2nc(-c3cccc4c3CC[C@@H]4NS(=O)(=O)CCC3CCC3)no2)cc1C#N` [Compound 168], `CC(C)Oc1ccc(-c2nc(-c3cccc4c3CC[C@@H]4NS(=O)(=O)CCN3CC[C@@H](O)C3)no2)cc1C#N` [Compound 173] is higher in EC50: 0.05 to 0.5 nM for the first, 0.5 to 5 nM for the second. The first is the more potent here.

First: CC(C)Oc1ccc(-c2nc(-c3cccc4c3CC[C@@H]4N3CCOC3=O)no2)cc1C#N [Compound 155]
Second: CC(C)Oc1ccc(-c2nc(-c3cccc4c3CC[C@H]4N3CC(C(=O)O)C3)no2)cc1C#N [Compound 202, (R)-1-(4-(5-(3-cyano-4-isopropoxyphenyl)-1,2,4-oxadiazol-3-yl)-2,3-dihydro-1H-inden-1-yl)azetidine-3-carboxylic acid]
The EC50 of the first is higher: 0.05 to 0.5 nM for the first, less than 0.05 nM for the second.

`CC(C)Oc1ccc(-c2nc(-c3cccc4c3CC[C@H]4NC(=O)N3CC[C@H](N(C)C)C3)no2)cc1C#N` [Compound 243] and `CC(C)Oc1ccc(-c2nc(-c3cccc4c3CC[C@@H]4NC(=O)N3CC[C@H](N(C)C)C3)no2)cc1C#N` [Compound 245] fall in the same range of EC50: 0.5 to 5 nM for the first, 0.5 to 5 nM for the second.

`CC(C)Oc1ccc(-c2nc(-c3cccc4c3CC[C@@H]4NC(=O)N3CCC[C@H](O)C3)no2)cc1C#N` [Compound 216] and `CC(C)Oc1ccc(-c2nc(-c3cccc4c3CC[C@H]4NC(=O)N3CC[C@@H](N)C3)no2)cc1C#N` [Compound 221] fall in the same range of EC50: 0.05 to 0.5 nM for the first, 0.05 to 0.5 nM for the second.

First: CC(C)Oc1ccc(-c2nc(-c3cccc4c3CC[C@@H]4NS(=O)(=O)CCC(=O)O)no2)cc1C#N [Compound 185]
Second: CC(C)Oc1ccc(-c2nc(-c3cccc4c3CC[C@@H]4NS(=O)(=O)CC(=O)O)no2)cc1C#N [Compound 71, (S)-2-(N-(4-(5-(3-cyano-4-isopropoxyphenyl)-1,2,4-oxadiazol-3-yl)-2,3-dihydro-1H-inden-1-yl)sulfamoyl)acetic acid]
The EC50 of the first is lower: less than 0.05 nM for the first, 0.05 to 0.5 nM for the second.

First: CC(=O)O[C@@H]1CCc2c(-c3noc(-c4ccc(OC(C)C)c(C#N)c4)n3)cccc21 [Compound 13, (R)-4-(5-(3-cyano-4-isopropoxyphenyl)-1,2,4-oxadiazol-3-yl)-2,3-dihydro-1H-inden-1-yl acetate]
Second: CC(=O)N[C@@H]1CCc2c(-c3noc(-c4ccc(OC(C)C)c(C#N)c4)n3)cccc21 [Compound 138, (R)-N-(4-(5-(3-cyano-4-isopropoxyphenyl)-1,2,4-oxadiazol-3-yl)-2,3-dihydro-1H-inden-1-yl)acetamide]
The EC50 of the first is higher: 0.5 to 5 nM for the first, less than 0.05 nM for the second. The second is the more potent here.

`Cc1cc(CN[C@H]2CCc3c(-c4noc(-c5ccc(OC(C)C)c(C#N)c5)n4)cccc32)[nH]n1` [Compound 162] and `Cc1c[nH]c(CN[C@H]2CCc3c(-c4noc(-c5ccc(OC(C)C)c(C#N)c5)n4)cccc32)n1` [Compound 159] fall in the same range of EC50: 0.5 to 5 nM for the first, 0.5 to 5 nM for the second.

`CC(C)Oc1ccc(-c2nc(-c3cccc4c3CC[C@@H]4N(C)C(=O)CO)no2)cc1C#N` [Compound 110] and `CC(C)Oc1ccc(-c2nc(-c3cccc4c3CC[C@@H]4N(C)CCO)no2)cc1C#N` [Compound 209] fall in the same range of EC50: 0.05 to 0.5 nM for the first, 0.05 to 0.5 nM for the second.

Compared with `CCOC(=O)N[C@@H]1CCc2c(-c3noc(-c4ccc(OC(C)C)c(C#N)c4)n3)cccc21` [Compound 151], `CC(C)Oc1ccc(-c2nc(-c3cccc4c3CC[C@@H]4NC(=O)OCCO)no2)cc1C#N` [Compound 153] is lower in EC50: 0.5 to 5 nM for the first, 0.05 to 0.5 nM for the second.

First: CCOc1ccc(-c2nc(-c3cccc4c3CC[C@H]4O)no2)cc1C(F)(F)F [Compound 9]
Second: CC(C)Oc1ccc(-c2nc(-c3cccc4c3CC[C@@H]4O)no2)cc1C(F)(F)F [Compound 8]
The EC50 of the first is higher: 0.5 to 5 nM for the first, 0.05 to 0.5 nM for the second.

`CC(C)Oc1ccc(-c2nc(-c3cccc4c3CCC4NS(=O)(=O)CCN(C)C)no2)cc1C#N` (stereo in doubt) [Compound 77] and `CC(C)Oc1ccc(-c2nc(-c3cccc4c3CC[C@@H]4NS(=O)(=O)CC(=O)N(C)C)no2)cc1C#N` [Compound 195, (S)-2 (N (4-(5-(3 cyano-4-isopropoxyphenyl)-1,2,4-oxadiazol-3-yl)-2,3-dihydro-1H-inden-1-yl)sulfamoyl)-N,N-dimethylacetamide] fall in the same range of EC50: 0.05 to 0.5 nM for the first, 0.05 to 0.5 nM for the second.

Compared with `CC(C)Oc1ccc(-c2nc(-c3cccc4c3CCC4N[C@@H](C)c3ccccc3)no2)cc1C#N` (stereo in doubt) [Compound 123], `CC(C)Oc1ccc(-c2nc(-c3cccc4c3CC[C@H]4N[C@@H](C)CO)no2)cc1C#N` [Compound 54, 5-(3-((R)-1-(((S)-1-hydroxypropan-2-yl)amino)-2,3-dihydro-1H-inden-4-yl)-1,2,4-oxadiazol-5-yl)-2-isopropoxybenzonitrile] is lower in EC50: greater than 5 nM for the first, 0.05 to 0.5 nM for the second.

`CC(C)Oc1ccc(-c2nc(-c3cccc4c3CC[C@@H]4NC(=O)N3CC[C@H](N)C3)no2)cc1C#N` [Compound 224] and `CC(C)Oc1ccc(-c2nc(-c3cccc4c3CC[C@@H]4NC(=O)N3CC[C@@H](N)C3)no2)cc1C#N` [Compound 223] fall in the same range of EC50: 0.5 to 5 nM for the first, 0.5 to 5 nM for the second.

First: CC(C)Oc1ccc(-c2nc(-c3cccc4c3CC[C@H]4NS(=O)(=O)CCN3CCCC3)no2)cc1C#N [Compound 170]
Second: CC(C)Oc1ccc(-c2nc(-c3cccc4c3CC[C@@H]4NS(=O)(=O)CC(=O)N3CCC3)no2)cc1C#N [Compound 200]
The EC50 of the first is higher: 0.5 to 5 nM for the first, less than 0.05 nM for the second. The second is the more potent here.

Compared with `CC(C)Oc1ccc(-c2nc(-c3cccc4c3CC[C@H]4N(CCO)CCO)no2)cc1C#N` [Compound 118], `CC(=O)N(CCO)[C@@H]1CCc2c(-c3noc(-c4ccc(OC(C)C)c(C#N)c4)n3)cccc21` [Compound 113] is higher in EC50: 0.05 to 0.5 nM for the first, 0.5 to 5 nM for the second. The first is the more potent here.

First: CC(C)Oc1ccc(-c2nc(-c3cccc4c3CC[C@@H]4NC(=N)N)no2)cc1C#N [Compound 250]
Second: CC(C)Oc1ccc(-c2nc(-c3cccc4c3CC[C@H]4NC(=O)CO)no2)cc1C#N [Compound 65, (R)-N-(4-(5-(3 cyano-4-isopropoxyphenyl)-1,2,4-oxadiazol-3-yl)-2,3-dihydro-1H-inden-1-yl)-2-hydroxyacetamide]
The EC50 of the first is higher: 0.05 to 0.5 nM for the first, less than 0.05 nM for the second. The second is the more potent here.

First: COC(=O)C1CCN(C(=O)N[C@@H]2CCc3c(-c4noc(-c5ccc(OC(C)C)c(C#N)c5)n4)cccc32)CC1 [Compound 236]
Second: CC(C)Oc1ccc(-c2nc(-c3cccc4c3CC[C@H]4NC(=O)N3CCC(CO)CC3)no2)cc1C#N [Compound 217]
The EC50 of the first is lower: 0.05 to 0.5 nM for the first, 0.5 to 5 nM for the second.

Compared with `CC(C)Oc1ccc(-c2nc(-c3cccc4c3CCC4NCCN3CCNCC3)no2)cc1C#N` (racemic) [Compound 25], `CC(C)Oc1ccc(-c2nc(-c3cccc4c3CC[C@H]4NC(=O)N3CCNCC3)no2)cc1C#N` [Compound 213] is lower in EC50: greater than 5 nM for the first, 0.5 to 5 nM for the second.

`CC(C)Oc1ccc(-c2nc(-c3cccc4c3CC[C@@H]4NCc3nc4ccccc4[nH]3)no2)cc1C#N` [Compound 160] and `CC(C)Oc1ccc(-c2nc(-c3cccc4c3CC[C@@H]4N[C@@H](C)CO)no2)cc1C#N` [Compound 53, 5-(3-((S)-1-(((S)-1-hydroxypropan-2-yl)amino)-2,3-dihydro-1H-inden-4-yl)-1,2,4-oxadiazol-5-yl)-2-isopropoxybenzonitrile] fall in the same range of EC50: 0.5 to 5 nM for the first, 0.5 to 5 nM for the second.

First: CCOc1ccc(-c2nc(-c3cccc4c3CC[C@@H]4O)no2)cc1OCC [Compound 2]
Second: CCN(CC)C(=O)CN[C@@H]1CCc2c(-c3noc(-c4ccc(OC(C)C)c(C#N)c4)n3)cccc21 [Compound 60]
The EC50 of the first is lower: 0.05 to 0.5 nM for the first, 0.5 to 5 nM for the second.

First: CC(=O)OCCNC1CCc2c(-c3noc(-c4ccc(OC(C)C)c(C#N)c4)n3)cccc21 (racemic) [Compound 37]
Second: COC(=O)CCCN[C@H]1CCc2c(-c3noc(-c4ccc(OC(C)C)c(C#N)c4)n3)cccc21 [Compound 145]
The EC50 of the first is higher: 0.05 to 0.5 nM for the first, less than 0.05 nM for the second.

Compared with `CC(C)Oc1ccc(-c2nc(-c3cccc4c3CC[C@H]4NCC(=O)NCCO)no2)cc1C#N` [Compound 135], `CCN(CC)CCNC1CCc2c(-c3noc(-c4ccc(OC(C)C)c(C#N)c4)n3)cccc21` (racemic) [Compound 28] is higher in EC50: 0.05 to 0.5 nM for the first, 0.5 to 5 nM for the second. The first is the more potent here.

`CC(C)Oc1ccc(-c2nc(-c3cccc4c3CC[C@@H]4NC(=O)N3CCNCC3)no2)cc1C#N` [Compound 214] and `CC(C)Oc1ccc(-c2nc(-c3cccc4c3CC[C@@H]4NC(=O)N3CCC(CC(=O)O)CC3)no2)cc1C#N` [Compound 229] fall in the same range of EC50: 0.05 to 0.5 nM for the first, 0.05 to 0.5 nM for the second.

First: CC(C)Oc1ccc(-c2nc(-c3cccc4c3CC[C@@H]4NS(=O)(=O)CC(=O)N3CCOCC3)no2)cc1C#N [Compound 191]
Second: CC(C)Oc1ccc(-c2nc(-c3cccc4c3CC[C@H]4NS(=O)(=O)CC(=O)N3CC(O)C3)no2)cc1C#N [Compound 190]
The EC50 of the first is higher: 0.05 to 0.5 nM for the first, less than 0.05 nM for the second. The second is the more potent here.

Compared with `CC(C)Oc1ccc(-c2nc(-c3cccc4c3CCC4N3CCN(CCO)CC3)no2)cc1C#N` (racemic) [Compound 24], `CC(C)Oc1ccc(-c2nc(-c3cccc4c3CCC4N3CC(C(=O)O)C3)no2)cc1C#N` (racemic) [Compound 18, 1-(4-(5-(3-cyano-4-isopropoxyphenyl)-1,2,4-oxadiazol-3-yl)-2,3-dihydro-1H-inden-1-yl)azetidine-3-carboxylic acid] is lower in EC50: 0.05 to 0.5 nM for the first, less than 0.05 nM for the second. The second is the more potent here.

Molecule `CC(=O)Nc1ccc(S(=O)(=O)NC2CCc3c(-c4noc(-c5ccc(OC(C)C)c(C#N)c5)n4)cccc32)cc1` (stereo in doubt) [Compound 82] has an EC50 greater than 5 nM.

From patent US9388147B2 (Receptos, Inc., priority 2009, dated 2016)
